Experimental data: PMC2438350, “Comparison of four different colorimetric and fluorometric cytotoxicity assays in a zebrafish liver cell line” (BMC Pharmacology, 2008)

What was measured:
Assay type in all cases: cell-based, zebrafish (Danio rerio)
[1] = test system: ZFL cells; assay: alamarBlue (AB) assay, cytotoxicity; settings: for EC10 (10% loss of cell viability): 24 h exposure, mean ± SD of three experiments; for EC50: read-out: EC50 (50% loss of cell viability), 24 h exposure, mean ± SD of three experiments
Experimental: (§1) Each compound was dissolved in dimethyl sulfoxide (DMSO) and diluted in a way that all stock solutions were 200 times concentrated compared to the final test concentrations. Concentration ranges were 30 pM-1.97 μM for BaP, 5 nM-5 μM for Flus, 5 nM-11 μM for Tam, and 0.2–43 μM for 4-OHT, which is in the range of in vivo studies with waterborne exposure of zebrafish for BaP, Tam, and 4-OHT [20-22, 29]. For Flusilazole, no studies on fish are available.
(§2) For finding the optimal biological test conditions, in the beginning different cell densities were applied using two-fold dilution series in the range of 780–100,000 cells/well and cell viability tests were performed after 24 h. […] Thus, cells were plated in 96 well flat-bottom plates at an initial cell density of 25,000 cells/well in 200 μL of medium and allowed to settle for 24 h. In parallel, wells containing only medium without cells were prepared and used later on for background correction. After the pre-incubation period, for each test compound and each concentration, 1 μL of the DMSO stock solutions was added so that the final DMSO content was 0.5%. All tests were performed at least three times and each time in triplicate.
(§3) The fluorogenic indicator dyes alamarBlue® (AB) (BioSource, Invitrogen) and CFDA-AM (5-carboxyfluorescein diacetate acetoxymethyl ester; Molecular Probes, Invitrogen) were used in combination on a third set of cells, since it was shown before that their fluorescent products can be detected at different non-interfering wavelengths. AB was obtained as ready-to-use stock solution, which had to be diluted 200 times to obtain the working solution. CFDA-AM powder was dissolved in DMSO to a stock solution of 4 mM, which was diluted 1000 times to reach the 4 μM working solution. […] For this purpose, cells were exposed to the dyes dissolved in culture medium without FBS or in Earle's-G medium. […] The AB/CFDA-AM assay was then performed according to [10]. In brief, after 24 h of incubation with the test compounds, the medium was aspirated off completely and 100 μL/well of the alamarBlue/CFDA-AM working solution were added. After 30 min of incubation, fluorescence was measured at 530 nm excitation/590 nm emission for AB and 485 nm/535 nm for CFDA-AM, respectively, using a fluorescence plate reader (Infinite 200, Tecan). For data evaluation, average values of triplicates were calculated after background correction and all average values for the treatments referred to the DMSO control, in order to express data as "% cytotoxicity".
(§4) For each single assay, data were evaluated separately for three independent experiments. Dose-response curves were fitted using a nonlinear-regression sigmoidal dose-response curve model provided in the GraphPad Prism software (GraphPad software, Inc., San Diego, USA). EC10 and EC50 values were derived from these fitted curves for the single experiments. Final EC-values (Table 1) were calculated as average of three independent experiments with the standard deviation of the mean indicating the variation. Data from the different assays were statistically compared using One way ANOVA analysis with Tukey's test as post-ANOVA analysis (p < 0.05).

[2] = test system: ZFL cells; assay: LDH assay (released lactate dehydrogenase activity), cytotoxicity; settings: for EC10 (10% loss of cell viability): 24 h exposure, 1% FBS, mean ± SD of three experiments; for EC50: read-out: EC50 (50% loss of cell viability), 24 h exposure, 1% FBS, mean ± SD of three experiments
Experimental: as §1, §2
A second set of cells was exposed to the test compounds for the LDH assay, which was performed using the Cytotoxicity Detection Kit LDH (Roche). For this assay, a positive control, leading to 100% cytotoxicity by lysing the cells completely, was included in the assay. The positive control was 2% Triton X-100 solution in the assay medium, as proposed by the manufacturer. After pre-incubation of the cells, before addition of the test compounds, the growth medium was exchanged from medium containing 5% FBS to medium containing only 1% FBS. Then, test compounds in DMSO were dosed and plates incubated as for the other assays for 24 h. For testing the released LDH activity, 100 μL of culture medium were transferred to a new 96 well plate. 100 μL of the reaction solution from the kit, containing the detection dye and the catalyst were then added and absorption was measured after 30 min at 490 nm with 655 nm as reference wavelength in an ELISA reader (Model 680, Biorad). As for the other assays, background values from wells without cells were subtracted and average values for the triplicates calculated. Cytotoxicity was then calculated according to the following equation: Cytotoxicity (%) = (experimental value - DMSO control)/(positive control - DMSO control) × 100.
as §4

[3] = test system: ZFL cells; assay: MTT assay, cytotoxicity; settings: for EC10 (10% loss of cell viability): 24 h exposure, mean ± SD of three experiments; for EC50: read-out: EC50 (50% loss of cell viability), 24 h exposure, mean ± SD of three experiments
Experimental: as §1, §2
The MTT assay was performed using the cell proliferation kit I MTT (Roche) according to the manufacturer's protocol. In brief, after 24 h of incubation with the test compounds, 100 μL of medium were removed from each well. Then, 10 μL of the MTT solution were added and plates incubated for 4 h at 28°C. Since the manufacturer recommends incubation at 37°C and ZFL cells have to be incubated at 28°C, we tested different incubation times with MTT (2, 4, and 6 h) to establish optimized conditions. […] After the incubation with MTT, the solubilization solution was added and plates incubated over night. The next day, absorption of the produced formazan was measured at 570 nm with 680 nm as reference wavelength using a microplate reader (Infinite 200, Tecan). For data evaluation, background and reference wavelength corrected absorption values were averaged for the triplicates and expressed as "% cytotoxicity" referring to the untreated control containing only the solvent DMSO.
as §4

[4] = test system: ZFL cells; assay: CFDA-AM assay, cytotoxicity; settings: for EC10 (10% loss of cell viability): 24 h exposure, mean ± SD of three experiments; for EC50: read-out: EC50 (50% loss of cell viability), 24 h exposure, mean ± SD of three experiments
Experimental: as §1, §2, §3, §4

| SMILES | EC10 (10% loss of cell viability) [1] | EC50 [1] | EC10 (10% loss of cell viability) [2] | EC50 [2] | EC10 (10% loss of cell viability) [3] | EC50 [3] | EC10 (10% loss of cell viability) [4] | EC50 [4] | EC50 ([1]; Danio rerio) | EC50 ([2]; Danio rerio) | EC50 ([3]; Danio rerio) | EC50 ([4]; Danio rerio) |
| --- | --- | --- | --- | --- | --- | --- | --- | --- | --- | --- | --- | --- |
| CC/C(=C(\c1ccc(O)cc1)c1ccc(OCCN(C)C)cc1)c1ccccc1.Cl [4-OH-Tamoxifen, trans-4-Hydroxy-Tamoxifen] | 0.79 ± 0.40 µM | 1.17 ± 0.24 µM | 0.73 ± 0.55 µM | 1.62 ± 0.01 µM | 1.49 ± 0.82 µM | 1.78 ± 0.4 µM | 1.08 ± 0.62 µM | 1.73 ± 0.67 µM | – | – | – | – |
| C[Si](Cn1cncn1)(c1ccc(F)cc1)c1ccc(F)cc1 [Flusilazole] | 16.13 ± 11.44 µM | – | 2.28 ± 3.12 µM | – | 11.29 ± 5.88 µM | – | 6.49 ± 1.08 µM | – | 26.4 ± 7.3 µM | 17.4 ± 14.5 µM | 18.4 ± 14.1 µM | 16.7 ± 4.76 µM |
| CC/C(=C(\c1ccccc1)c1ccc(OCCN(C)C)cc1)c1ccccc1 [Tamoxifen] | 1.37 ± 0.33 µM | – | 0.61 ± 0.67 µM | – | 1.39 ± 0.77 µM | – | 2.52 ± 2.14 µM | – | – | – | – | – |
